Legend:
[1] = test system: monoclonal antibody specific for human alpha-synuclein at position 115-122 (AFFiRiS3/9, A509); test: In vitro binding assay (ELISA): peptide-BSA on plate, incubated with the screening monoclonal antibody; parameters: species or system mouse; details: FIG. 1 and FIG. 2
Description: 1. In Vitro Binding Assay (ELISA)

[2] = test system: injected peptide (peptide-BSA conjugate); test: Mimotope-KLH vaccination of mice: serum titer against injected peptide (ELISA); format: in vivo, C57/Bl6 mice; details: C57/Bl6 mice, 30 μg peptide-KLH s.c., alum, repeated vaccination
Protocol: (§1) Inhibiting as well as non-inhibiting peptides were coupled to KLH and injected into mice (wildtype C57/Bl6 mice; subcutaneous injection into the flank) together with an appropriate adjuvant (aluminium hydroxide). Animals were vaccinated 4-6 times in biweekly intervals and sera were taken biweekly as well. Titers to injected peptides as well as to an irrelevant peptide were determined with every serum. Titers against the recombinant human alpha-synuclein protein and recombinant human beta-synuclein were determined starting with Serum 3 respectively. Pooled sera were tested against the original human alpha-synuclein epitope (aa115-122). In general sera were analysed by reaction against peptides coupled to Bovine Serum Albumin (BSA) and recombinant full length proteins which were immobilised on ELISA plates. Titers were determined using anti mouse IgG specific antibodies. For detailed results see FIGS. 4A, 4B, 5A and 5B.
(§2) Female C57/Bl6 mice, 5-6 mice per group, were subcutaneously immunized with 30 μg peptide coupled to KLH. Control groups were administered p4448-KLH conjugate. As adjuvant alum was used (always 1 mg per mouse). […] The in vitro ELISA assay to determine the antibody titer was performed with sera of single mice or pooled sera (see FIGS. 5A and 5B) after each vaccination in a two week interval (see FIGS. 4A, 4B, 5A and 5B, respectively). The wells of the ELISA plate were coated with mimotope-BSA conjugate and an irrelevant peptide-BSA conjugate (negative control). The positive control was performed by reaction of the parental antibody with the respective mimotope-BSA conjugate. The detection was performed with anti-mouse IgG. Additionally, recombinant proteins were immobilised on ELISA plates and sera reacted accordingly.

[3] = test system: irrelevant peptide p1253; test: Mimotope-KLH vaccination of mice: serum titer against irrelevant peptide (ELISA); format: in vivo; details: C57/Bl6 mice, alum
Protocol: as §1, §2

[4] = test system: recombinant human alpha-synuclein protein; test: Mimotope-KLH vaccination of mice: serum titer against recombinant alpha-synuclein (ELISA); format: in vivo, C57/Bl6 mice; details: pooled sera after 4 vaccinations; FIG. 5B
Protocol: as §1, §2

[5] = test system: recombinant human beta-synuclein; test: Mimotope-KLH vaccination of mice: serum titer against recombinant beta-synuclein (ELISA); format: in vivo, C57/Bl6 mice; details: pooled sera after 4 vaccinations, FIG. 5B
Protocol: as §1, §2

CDMPVDPDN [p4448, reference compound] was tested, and the “binding to / detection by the monoclonal antibody in ELISA” value [1] was “are detected by the antibody”, the “immune response against injected peptide” value [2] was “elicited immune responses against the injected peptide” and the “immune response against unrelated sequence p1253” value [3] was “failed to induce an unspecific immune response”. For the same sequence, the “reactivity of induced sera with alpha-synuclein” value [4] was “show titers against alpha-synuclein”, the “reactivity of induced sera with beta-synuclein” value [5] was “detect alpha and beta-synuclein” and the “reactivity of induced sera with beta-synuclein” value ([5]; listed as original epitope) was “also detected the full length beta-synuclein protein”.
